Patent publication US20100286145A1, “ISOPHTHALAMIDE DERIVATIVES INHIBITING BETA-SECRETASE ACTIVITY” (CoMentis, Inc., priority 2007, published 2010)
Where two headings read alike, the source gives them in different places.

How the values were obtained:
memapsin 2 = memapsin 2 (Homo sapiens, UniProt P56817); assay: Inhibition of memapsin 2 beta-secretase activity (fluorogenic substrate FS-2); format: biochemical; conditions: memapsin 2, pH 4, 37° C.
How it was run: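 Memapsin 2 pre-incubated 20 min with compound at pH 4, 37° C, then FS-2 substrate (MCA-SEVNLDAEFK-DNP, APP Swedish cleavage site) added. Rate of fluorescence increase compared with uninhibited controls, fitted to a tight-binding inhibition model.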

memapsin 1 = target: T1, memapsin 1 (Homo sapiens, UniProt Q9Y5Z0); assay: Inhibition of memapsin 1 beta-secretase activity (substrate peptide ELDLAVEFWHDR, MALDI-TOF); format: biochemical
T1 sequence (Q9Y5Z0 63-518): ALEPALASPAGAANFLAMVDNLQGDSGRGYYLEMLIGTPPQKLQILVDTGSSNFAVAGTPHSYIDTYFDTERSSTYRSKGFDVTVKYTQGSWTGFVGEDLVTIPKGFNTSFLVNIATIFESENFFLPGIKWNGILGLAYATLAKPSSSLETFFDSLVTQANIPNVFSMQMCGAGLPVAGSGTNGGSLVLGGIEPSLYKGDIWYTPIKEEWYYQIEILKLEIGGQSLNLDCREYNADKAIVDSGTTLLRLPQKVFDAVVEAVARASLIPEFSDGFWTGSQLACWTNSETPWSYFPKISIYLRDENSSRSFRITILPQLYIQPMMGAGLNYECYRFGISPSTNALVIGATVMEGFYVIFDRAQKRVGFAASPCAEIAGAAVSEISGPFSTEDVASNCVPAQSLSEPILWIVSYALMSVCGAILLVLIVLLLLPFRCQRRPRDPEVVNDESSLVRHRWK

cathepsin D = cathepsin D (Homo sapiens, UniProt P07339); assay: Inhibition of cathepsin D activity (substrate peptide ELDLAVEFWHDR, MALDI-TOF); format: biochemical
[1] = tested on: Aβ production in Chinese hamster ovary cells that over-express human APP695 with the London and Swedish mutations; assay: Cellular Aβ IC50 determination (Aβ40 sandwich ELISA); format: cell-based; conditions: Cricetulus griseus
How it was run: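 CHO cells overexpressing human APP695 with London and Swedish mutations, seeded at 10% confluency, treated with compounds up to about 4 μM final (0.4% DMSO). Secreted Aβ40 measured by sandwich ELISA relative to control and fitted to a 4-parameter IC50 model.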

[2] = Brain pharmacokinetic analysis / brain penetration in rats, i.v. bolus; format: in vivo; conditions: male, Sprague-Dawley, rat, in vivo, iv, 10 mg/kg
Source text: (§1) Quantitative analysis was used to determine the concentration of a test inhibitor, N1-((2S,3R)-4-((5-(2-fluoropropan-2-yl)pyridin-3-yl)methylamino)-3-hydroxy-1-phenylbutan-2-yl)-N3-methyl-N3-((4-methylthiazol-2-yl)methyl)isophthalamide, in biological tissues. The test inhibitor was extracted from a variety of biological samples followed by its selective identification and quantification from a standard curve prepared in the same extracted biological matrix. Briefly, this extraction is accomplished through a simple protein precipitation technique performed on collected plasma. The resultant extractions are then quantified using the LC/MS protocol as detailed herein.
(§2) Quantitative analysis was performed through LC/MS analysis. The system was composed of an Eksigent Express LC 100 microflow HPLC system, coupled with an Eksigent CXP C-8AR 0.3*50 mm, or other suitable column, and a Thermo TSQuantum Classic triple quadrupole mass spectrometer running in positive ion, SRM mode. The HPLC buffers were 99.5% H2O, 0.5% formic acid (buffer A) and 99.5% acetonitrile, 0.5% formic acid (buffer B). Typically, a 10 μl aliquot was injected onto the column followed by a 1.5 minute chromatographic analysis. This analysis was conducted at a 20 μl/min flow rate, and composed of a gradient from 15% B to 90% B followed by a 98% B flush to facilitate compound separation and quantitation. Each sample was analyzed in duplicate, with QC, and system blank samples run after every sample set. The column effluent was analyzed in real time by MS/MS to allow the positive identification and quantification of the test inhibitor by compound fingerprint analysis. This was accomplished by allowing only species of 586.3 Da to pass through the first quadrupole, followed by collision induced decay in quadrupole two and scanning analysis of selected daughter ions specific to the test compound in quadrupole three. The collected data was analyzed using the LCQuan software package from Thermo Electron, to determine the levels of the test compound in the samples.
Male Sprague-Dawley Rats (200-400 g) were obtained from Taconic Farms (Hudson, N.Y.) with a pre-implanted jugular vein cannula (JVC) for blood sampling. A solution (5 mg/mL, free base equivalents) of the test inhibitor, N1-((2S,3R)-4-((5-(2-fluoropropan-2-yl)pyridin-3-yl)methylamino)-3-hydroxy-1-phenylbutan-2-yl)-N3-methyl-N3-((4-methylthiazol-2-yl)methyl)isophthalamide mono-citrate salt, was prepared freshly in 35% hydroxypropyl-β-cyclodextrin (HPBCD). Intravenous bolus injection was conducted using a 25 gauge needle via the tail vein. Animals were supplied with water and a commercial rodent diet ad libitum prior to and during the study.
Blood samples (˜100 μl at each time point) for plasma pharmacokinetic (PK) analysis were collected from the JVC cannula into lithium-heparin tubes at 2 min, 5 min, 15 min, 30 min, 45 min, 1 hr, 2 hr, 4 hr, 6 hr and 24 hr post-dose (Group A in Table 2). For compartmental PK analysis, blood and brain were collected from animals in Group B (Table 2) at 15 min, 1 hr, 2 hr, 4 hr, and 6 hr post-dose, with three rats assigned to each time point. Animals were deeply anesthetized with isoflurane and blood collected by cardiocentesis. Plasma separated by centrifugation at 6000 rpm×10 min. Brain hemispheres were subsequently harvested and snap frozen in liquid nitrogen. Plasma and brain samples were subsequently stored at −70° C.
Bioanalysis of the test inhibitor from plasma and brain extracts was performed according to standard procedures. Briefly, 20 μl of plasma was extracted with 100 μl of acetonitrile using a 96-well Solvinert filter plate (Millipore). Samples were subjected to LC/MS/MS analysis using an Eksigent Express LC 100 microflow HPLC system, coupled with an Eksigent CXP C-18AR 0.3*50 mm column, and a Thermo TSQuantum Classic triple quadrupole mass spectrometer running in positive ion, SRM mode. […]

[3] = Plasma pharmacokinetic analysis in rats, i.v. bolus; format: in vivo; conditions: male, Sprague-Dawley, rat, plasma; rats, single 10 mg/kg intravenous dose; read-out: 24 hr plasma AUC
Source text: as §1
Whole blood from animals dosed with the test inhibitor was collected in lithium heparin anti-coagulant tubes. These samples were centrifuged to allow the subsequent collection of plasma, with plasma aliquots immediately stored at −70° C. For quantitative analysis, the samples were then thawed on ice and a 20 μl aliquot was added to a well of a multi-screen Solvinert filter plate (Millipore). A five-fold volume of acetonitrile was added to each sample to facilitate protein precipitation, the samples were multiply aspirated or shaken to mix and then centrifuged at 4500 rpm for 15 minutes to filter the samples, with the supernatant being collected in an underlying 96 well receiving plate. The receptor plate was then dried via speed vacuum at 40° C. The sample was reconstituted by multiple aspirations with a reconstitution buffer composed of 10% acetonitrile, 10% DMSO, 80% H2O with an internal standard added at a concentration of 100 ng/ml. Standards of the test inhibitor were prepared in 100% DMSO for the generation of a standard curve for sample quantification. The samples range from 1 to 100000 ng/ml, as required for the analysis. A 1 μl aliquot of standard was added per 10 μl of blank plasma to construct a calibration curve, 0.1 ng/ml to 10000 ng/ml, prior to the protein precipitation step again as required for analysis. Quality control samples were prepared identically, from an alternate standard source and a single sample was prepared with an identical volume spike added post precipitation and collection to monitor the extraction efficiency. This method was applicable to plasma from all species currently being tested. Solvinert filter wells were pre-washed with 100 μl of 10% MeOH/90% ACN followed by centrifugation at 4500 RPM for 10 min prior to use.
as §2
Male Sprague-Dawley Rats (200-400 g) were obtained from Taconic Farms (Hudson, N.Y.) with a pre-implanted jugular vein cannula (JVC) for blood sampling. […]

[4] = 20 minutes pre-incubation, read-out: M2Ki
[5] = cellular Aβ production, read-out: IC50

Sequence of memapsin 2 (P56817 46-501): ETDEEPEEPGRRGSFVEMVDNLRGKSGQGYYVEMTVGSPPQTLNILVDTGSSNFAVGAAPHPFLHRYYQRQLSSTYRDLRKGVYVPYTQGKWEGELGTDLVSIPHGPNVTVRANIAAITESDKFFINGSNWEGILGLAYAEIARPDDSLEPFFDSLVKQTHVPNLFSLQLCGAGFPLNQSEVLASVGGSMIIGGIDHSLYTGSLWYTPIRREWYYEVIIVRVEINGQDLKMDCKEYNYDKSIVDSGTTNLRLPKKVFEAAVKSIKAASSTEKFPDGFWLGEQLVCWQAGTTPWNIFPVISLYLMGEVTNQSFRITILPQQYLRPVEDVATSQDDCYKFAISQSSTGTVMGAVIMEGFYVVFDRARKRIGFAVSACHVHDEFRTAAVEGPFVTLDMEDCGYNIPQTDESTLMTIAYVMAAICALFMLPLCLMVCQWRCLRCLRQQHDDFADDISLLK
Sequence of cathepsin D (P07339 65-412, species assumed): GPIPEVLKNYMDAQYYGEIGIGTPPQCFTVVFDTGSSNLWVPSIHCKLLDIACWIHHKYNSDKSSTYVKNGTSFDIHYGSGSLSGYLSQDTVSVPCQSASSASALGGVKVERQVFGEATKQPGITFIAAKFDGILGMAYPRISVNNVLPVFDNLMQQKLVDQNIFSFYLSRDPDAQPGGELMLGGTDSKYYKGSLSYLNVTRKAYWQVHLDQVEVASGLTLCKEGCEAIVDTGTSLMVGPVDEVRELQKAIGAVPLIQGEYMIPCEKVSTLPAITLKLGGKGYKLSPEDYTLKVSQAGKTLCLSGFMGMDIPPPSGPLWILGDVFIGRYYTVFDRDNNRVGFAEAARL

| SMILES | Ki (memapsin 2; [4]) | Ki (memapsin 1; read-out: M1Ki) | Ki (cathepsin D; read-out: CDKi) | IC50 [1, 5] | other results |
| --- | --- | --- | --- | --- | --- |
| Cc1csc([C@@H](C)N(C)C(=O)c2cccc(C(=O)N[C@@H](Cc3ccccc3)[C@H](O)CNCc3cncc(C(C)C)c3)c2)n1 [Compound 82, N1-((2S,3R)-3-hydroxy-4-((5-isopropylpyridin-3-yl)methylamino)-1-phenylbutan-2-yl)-N3-methyl-N3-((R)-1-(4-methylthiazol-2-yl)ethyl)isophthalamide] | < 300 nM | 301 to 500 nM | 301 to 500 nM | < 1000 nM | – |
| C[C@@H](NC(=O)c1cc(C(=O)N[C@@H](Cc2ccccc2)[C@H](O)CNCc2cccc(Cl)c2)cc(N(C)S(C)(=O)=O)c1)c1ccccc1 [Compound 86, N1-((2S,3R)-4-(3-chlorobenzylamino)-3-hydroxy-1-phenylbutan-2-yl)-5-(N-methylmethylsulfonamido)-N3-((R)-1-phenylethyl)isophthalamide] | < 300 nM | < 300 nM | 301 to 500 nM | < 1000 nM | – |
| C[C@@H](NC(=O)c1cc(C(=O)N[C@@H](Cc2ccccc2)[C@H](O)CNCc2cccc(I)c2)cc(N(C)S(C)(=O)=O)c1)c1ccccc1 [Compound 88, N1-((2S,3R)-3-hydroxy-4-(3-iodobenzylamino)-1-phenylbutan-2-yl)-5-(N-methylmethylsulfonamido)-N3-((R)-1-phenylethyl)isophthalamide] | < 300 nM | < 300 nM | < 300 nM | < 1000 nM | – |
| C[C@@H](NC(=O)c1cc(C(=O)N[C@@H](Cc2ccccc2)[C@H](O)CNCc2cncc(C(C)(C)F)c2)cc(N(C)S(C)(=O)=O)c1)c1ccccc1 [Compound 89, N1-((2S,3R)-4-((5-(2-fluoropropan-2-yl)pyridin-3-yl)methylamino)-3-hydroxy-1-phenylbutan-2-yl)-5-(N-methylmethylsulfonamido)-N3-((R)-1-phenylethyl)isophthalamide] | < 300 nM | < 300 nM | < 300 nM | < 1000 nM | – |
| Cc1csc(CN(C)C(=O)c2cccc(C(=O)N[C@@H](Cc3ccccc3)[C@H](O)CNCc3cc(C(C)C)cc(N(C)C)c3)c2)n1 [Compound 90, N1-((2S,3R)-4-(3-(dimethylamino)-5-isopropylbenzylamino)-3-hydroxy-1-phenylbutan-2-yl)-N3-methyl-N3-((4-methylthiazol-2-yl)methyl)isophthalamide] | < 300 nM | > 501 nM | < 300 nM | < 1000 nM | – |
| Cc1cc(C(=O)N[C@@H](Cc2ccccc2)[C@H](O)CNCc2cncc(C(C)C)c2)cc(C(=O)N(C)Cc2nc(C)cs2)c1 [N1-((2S,3R)-3-hydroxy-4-((5-isopropylpyridin-3-yl)methylamino)-1-phenylbutan-2-yl)-N3,5-dimethyl-N3-((4-methylthiazol-2-yl)methyl)isophthalamide] | – | – | – | – | Ki (memapsin 2; read-out: M2 Ki): 16.8 nM; Ki (memapsin 1; read-out: M1 Ki): 264 nM; Ki (cathepsin D; read-out: CathD Ki): 32.3 nM; IC50 ([1]; CHO cells, 24 h incubation, Aβ40, read-out: IC50 (cellular Aβ production)): 6 nM |
| Cc1csc(CN(C)C(=O)c2cccc(C(=O)N[C@@H](Cc3ccccc3)[C@H](O)CNCc3cncc(C(C)(C)F)c3)c2)n1 [N1-((2S,3R)-4-((5-(2-fluoropropan-2-yl)pyridin-3-yl)methylam] [N1-((2S,3R)-4-((5-(2-fluoropropan-2-yl)pyridin-3-yl)methylamino)-3-hydroxy-1-phenylbutan-2-yl)-N3-methyl-N3-((4-methylthiazol-2-yl)methyl)isophthalamide] | – | – | – | – | Penetration (%), brain relative to plasma AUC24 hr [2]: 47% |
| Cc1csc(CN(C)C(=O)c2cccc(C(=O)N[C@@H](Cc3ccccc3)[C@H](O)CNCc3cncc(C(C)(C)F)c3)c2)n1 [N1-((2S,3R)-4-((5-(2-fluoropropan-2-yl)pyridin-3-yl)methylamino)-3-hydroxy-1-phenylbutan-2-yl)-N3-methyl-N3-((4-methylthiazol-2-yl)methyl)isophthalamide] | – | – | – | – | Kp ([2]; Penetration (%), brain relative to plasma AUC24 hr): 0.468; AUC [3]: 2580 ng·h/mL |
